We go through 14 compounds from patent US9056867B2, “N-substituted heterocyclyl carboxamides” (NOVARTIS AG, priority 2011, dated 2015).

For one assay, the target named is T1, ΔF508-CFTR channel (Homo sapiens, UniProt P13569, DEL508-508).
T1 construct: expressed in transfected cells
T1 sequence (P13569 with tags, fused parts or gaps DEL508-508): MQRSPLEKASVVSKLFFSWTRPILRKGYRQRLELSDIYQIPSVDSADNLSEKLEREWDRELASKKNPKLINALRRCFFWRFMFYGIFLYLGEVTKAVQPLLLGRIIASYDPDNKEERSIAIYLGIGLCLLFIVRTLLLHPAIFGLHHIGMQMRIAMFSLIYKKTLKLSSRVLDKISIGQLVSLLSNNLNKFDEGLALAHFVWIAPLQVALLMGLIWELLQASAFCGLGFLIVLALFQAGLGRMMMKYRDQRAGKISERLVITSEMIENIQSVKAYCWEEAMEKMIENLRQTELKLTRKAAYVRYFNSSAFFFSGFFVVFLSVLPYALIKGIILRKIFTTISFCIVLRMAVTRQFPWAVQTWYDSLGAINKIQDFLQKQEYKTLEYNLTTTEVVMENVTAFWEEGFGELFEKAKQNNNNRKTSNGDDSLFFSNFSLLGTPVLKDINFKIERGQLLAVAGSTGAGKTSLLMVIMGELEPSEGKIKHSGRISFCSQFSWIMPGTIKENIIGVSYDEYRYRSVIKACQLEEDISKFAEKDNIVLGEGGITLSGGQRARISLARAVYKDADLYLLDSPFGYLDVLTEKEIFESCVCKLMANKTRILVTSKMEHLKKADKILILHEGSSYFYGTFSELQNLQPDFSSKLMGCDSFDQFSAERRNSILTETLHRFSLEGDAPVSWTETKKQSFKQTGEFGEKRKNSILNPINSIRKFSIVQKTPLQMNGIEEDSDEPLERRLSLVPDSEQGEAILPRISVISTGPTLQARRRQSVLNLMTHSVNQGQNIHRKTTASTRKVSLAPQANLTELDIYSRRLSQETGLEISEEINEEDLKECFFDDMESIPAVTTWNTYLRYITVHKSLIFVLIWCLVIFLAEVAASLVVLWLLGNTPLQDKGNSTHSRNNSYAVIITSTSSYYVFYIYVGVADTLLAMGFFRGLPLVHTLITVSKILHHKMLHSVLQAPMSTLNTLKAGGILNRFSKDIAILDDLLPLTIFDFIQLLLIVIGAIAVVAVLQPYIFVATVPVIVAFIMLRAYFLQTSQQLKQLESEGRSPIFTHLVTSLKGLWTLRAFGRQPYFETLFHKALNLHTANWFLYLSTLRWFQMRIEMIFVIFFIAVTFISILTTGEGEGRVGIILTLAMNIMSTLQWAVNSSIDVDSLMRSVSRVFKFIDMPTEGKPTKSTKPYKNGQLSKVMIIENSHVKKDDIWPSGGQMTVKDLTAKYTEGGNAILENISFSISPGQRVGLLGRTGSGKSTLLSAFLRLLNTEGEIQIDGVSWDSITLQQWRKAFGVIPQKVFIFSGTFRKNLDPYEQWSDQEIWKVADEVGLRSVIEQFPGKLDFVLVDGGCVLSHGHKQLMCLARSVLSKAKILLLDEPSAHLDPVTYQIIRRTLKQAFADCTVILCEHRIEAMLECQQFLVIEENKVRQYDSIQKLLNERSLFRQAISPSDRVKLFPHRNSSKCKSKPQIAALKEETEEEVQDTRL
The assay can be described thus: CFTR potentiator assays (membrane potential assay, IonWorks Quattro assay, ion transport assay); the patent does not say which one gave the values. The note with it: cells stably expressing ΔF508-CFTR, forskolin present; values given in μM; read-out: Ki values in the data measurements described above. It counts as cell-based. The source says:
CFTR activity can be quantified by measuring the transmembrane potential. The means for measuring the transmembrane potential in a biological system can employ a number of methods including electrophysiological and optical fluoresence-based membrane potential assays.
The optical membrane potential assay utilises a negatively charged potentiometric dye, such as the FLIPR membrane potential dye (FMP) (see Baxter D F, Kirk M, Garcia A F, Raimondi A, Holmqvist M H, Flint K K, Bojanic D, Distefano P S, Curtis R, Xie Y. ‘A novel membrane potential-sensitive fluorescent dye improves cell-based assays for ion channels.’ J Biomol Screen. 2002 Feb.; 7(1):79-85) which when extraceullar is bound to a quenching agent. Upon cellular depolarisation the negatively charged dye redistributes to the intracellular compartment, unbinding from the membrane impermeant quench agent, yielding an increase in fluorescence. This change in fluoresence is proportional to the change in transmembrane potential which can result from the activity of CFTR. The changes in fluorescence can be monitored in real time by an appropriately equipped fluorescence detector such as the FLIPR (fluorometric imaging plate reader) in 96 or 384-well microtitre plates.
Chinese hamster ovary (CHO) cells stably expressing the ΔF508-CFTR channel were used for membrane potential experiments. Cells were maintained at 37° C. in 5% v/v CO2 at 100% humidity in Modified Eagles medium (MEM) supplemenetd with 8% v/v foetal calf serum, 100 μg/ml methotrexate and 100 U/ml penicillin/streptomycin. Cells were grown in 225 cm^2 tissue culture flasks. For membrane potential assays cells were seeded into 96 well plates at 40,000 cells per well, allowed to adhere and then maintained at 26° C. for 48 h to facilitate channel insertion.
The membrane potential screening assay utilised a low chloride ion containing extraceullular solution (˜5 mM) combined with a double addition protocol. The first addition was of buffer with or without test compound followed 5 minutes later by an addition of forskolin (1-20 μM)—this protocol favours maximum chloride efflux in response to ΔF508-CFTR activation. The ΔF508-CFTR mediated chloride ion efflux leads to a membrane depolarisation which is optically monitoried by the FMP dye.
Low chloride extracellular (mM): 120 Na-gluconate, 1.2 CaCl2, 3.3 KH2PO4, 0.8 K2HPO4, 1.2 MgCl2, 10.0 D-glucose, 20.0 HEPES, pH 7.4 with NaOH
FMP dye: made up as per manufacuturers instructions in low chloride extracellular solution detailed above, at 10× final concentration, and stored as 1 mL aliquots at −20° C.
CFTR activity can also be quantified electrophysiologically using the whole-cell configuration of the patch clamp technique (Hamill et al Pflugers Acrhive 1981). This assay directly measures the currents associated with chloride flow through CFTR channels whilst either maintaining or adjusting the transmembrane voltage. This assay can use either single glass micropipettes or parallel planar arrays to measure CFTR activity from native or recombinant cell systems. Currents measured using parallel planar arrays can be quantified using an appropriately equipped instrument such as the IonWorks Quattro (Molecular Devices) or the Qpatch (Sophion). The Quattro system can measure CFTR currents from either a single cell per recording well (HT configuration) or alternatively from a population of 64 cells per well (Population Patch Clamp PPC) (Finkel A, Wittel A, Yang N, Handran S, Hughes J, Costantin J. ‘Population patch clamp improves data consistency and success rates in the measurement of ionic currents.’ J Biomol Screen. 2006 Aug.; 11(5):488-96).
Chinese hamster ovary (CHO) cells stably expressing the ΔF508-CFTR channel were used for IonWorks Quattro experiments. […]
As to `Nc1cc(C(F)(F)F)c(Cl)nc1C(=O)Nc1ccn[nH]1` [Example 22, 3-Amino-6-chloro-N-(1H-pyrazol-5-yl)-5-(trifluoromethyl)picolinamide], the inhibition constant Ki was 0.025 µM.

Consider `Nc1nc(C(F)(F)F)c(Br)nc1C(=O)Nc1nc(Cc2ccccc2)n[nH]1` [Example 24, 3-Amino-N-(3-benzyl-1H-1,2,4-triazol-5-yl)-6-bromo-5-(trifluoromethyl)pyrazin-2-carboxamide], for which the inhibition constant (Ki) was found to be 0.02 µM.

For `Nc1cc(C(F)(F)F)c(Br)nc1C(=O)Nc1ccn[nH]1` [Example 7, 3-Amino-6-bromo-5-trifluoromethyl-pyridine-2-carboxylic acid (2H-pyrazol-3-yl)-amide], the inhibitory constant (Ki) was found to be 0.01 µM.

For the compound `Nc1cc(C(F)(F)F)c(Br)nc1C(=O)Nc1cc(C(F)(F)F)n[nH]1` [Example 5, 3-Amino-6-bromo-5-trifluoromethyl-pyridine-2-carboxylic acid (5-trifluoromethyl-2H-pyrazol-3-yl)-amide], the Ki turned out to be 0.07 µM.

For the compound `Cc1nnc(-c2ccc(-c3nc(C(=O)Nc4ccn[nH]4)c(N)cc3C(F)(F)F)cc2)o1` [Example 26.3, 3-Amino-6-[4-(5-methyl-[1,3,4]oxadiazol-2-yl)-phenyl]-5-trifluoromethyl-pyridine-2-carboxylic acid (2H-pyrazol-3-yl)-amide], the Ki was found to be 0.16 µM.

In the case of `Nc1cc(C(F)(F)F)c(Br)nc1C(=O)Nc1n[nH]c2nccnc12` [Example 18, 3-Amino-6-bromo-N-(1H-pyrazolo[4,3-b]pyrazin-3-yl)-5-(trifluoromethyl)picolinamide], the inhibitory constant (Ki) was 0.004 µM.

Consider `Nc1nc(C(F)(F)F)c(Cl)nc1C(=O)Nc1ccn[nH]1` [Example 14, 3-Amino-6-chloro-5-trifluoromethyl-pyrazine-2-carboxylic acid (2H-pyrazole-3-yl)amide], for which the Ki stood at 0.255 µM.

Turning to `Nc1nc(C(F)(F)F)c(Br)nc1C(=O)Nc1[nH]ncc1-c1ccccn1` [Example 19, 3-Amino-6-bromo-N-(4-(pyridin-2-yl)-1H-pyrazol-5-yl)-5-(trifluoromethyl)pyrazine-2-carboxamide], the Ki is 1.55 µM.

The assay is the same for the next values; noted with them: cells stably expressing ΔF508-CFTR, forskolin present; values in nM; read-out: Ki values in the data measurements described above.
With `COc1ncccc1-c1nc(C(=O)Nc2cc[nH]n2)c(N)cc1C(F)(F)F` [Example 25.3, 5-Amino-2′-methoxy-3-trifluoro methyl-[2,3′]bipyridinyl-6-carboxylic acid (1H-pyrazol-3-yl)-amide], the Ki was 0.014 µM.

For the compound `COc1ccc(-c2nc(C(=O)Nc3ccn[nH]3)c(N)cc2C(F)(F)F)cn1` [Example 26.2, 5-Amino-6′-methoxy-3-trifluoromethyl-[2,3′]bipyridinyl-6-carboxylic acid (2H-pyrazol-3-yl)-amide], the inhibition constant (Ki) was 0.045 µM.

As to `Cc1cn[nH]c1NC(=O)c1nc(C(F)(F)F)c(C(F)(F)F)nc1N` [Example 27, 3-Amino-5,6-bis-trifluoromethyl-pyrazine-2-carboxylic acid (4-methyl-2H-pyrazol-3-yl)-amide], the inhibitory constant (Ki) is 0.019 µM.

In the case of `Nc1cc(C(F)(F)F)c(-c2ccc(F)cc2)nc1C(=O)Nc1cc[nH]n1` [Example 25.1, 3-Amino-6-(4-fluorophenyl)-N-(1H-pyrazol-3-yl)-5-(trifluoromethyl)picolinamide], the Ki was 0.0038 µM.

With `Cc1cc(Cl)ccc1-c1nc(C(=O)Nc2ccn[nH]2)c(N)cc1C(F)(F)F` [Example 25.2, 3-Amino-6-(4-chloro-2-methyl-phenyl)-5-trifluoro methyl-pyridine-2-carboxylic acid (2H-pyrazol-3-yl)-amide], the Ki was 0.013 µM.

Take `Nc1cc(C(F)(F)F)c(-c2cccc(CN3CCCC3=O)c2)nc1C(=O)Nc1ccn[nH]1` [Example 26.1, 3-Amino-6-[3-(2-oxo-pyrrolidin-1-ylmethyl)-phenyl]-5-trifluoromethyl-pyridine-2-carboxylic acid (2H-pyrazol-3-yl)-amide]: the Ki is 0.03 µM.
